# Experimental data: patent US11279735B2, “Cyclic peptide antibiotics” (priority 2017, dated 2022)
# Where “and” joins values, the source holds several entries; their conditions need not be identical. Equal entries are not always repeated. *1 amine or outer side, *2 acyl side, *3 side chain or, on linkers, in order; H or OH if unused. Where a SMILES comes first, the peptide text is derived from it. [ ]: non-standard residue; d: D form. The star is where a group is joined. X12 = C[C@H](CO[C@H](CC12CC3CC(CC(C3)C1)C2)[C@@H](C)C(=O)[*:2])N[*:1]; X13 = C[C@H](CO[C@H](CC1CC2(CCC2)C1)[C@@H](C)C(=O)[*:2])N[*:1]; X2 = CCCCCC[C@@H](OC[C@@H](C)N[*:1])[C@@H](C)C(=O)[*:2]; X14 = CCCCCC[C@@H](OCCN[*:1])[C@@H](C)C(=O)[*:2]; Gly(cHept) = N[C@H](C(=O)O)C1CCCCCC1; aIle = CC[C@@H](C)[C@H](N)C(=O)O; aThr = C[C@H](O)[C@H](N)C(=O)O; NMeL = CN[C@@H](CC(C)C)C(=O)O; Chg = N[C@H](C(=O)O)C1CCCCC1; NMeNva = CCC[C@H](NC)C(=O)O; X8 = NC[C@H]1C[C@H](*)C1; Dap = NC[C@H](N)C(=O)O; Ethyl(2-NH2) = NCC*; X22 = C1CC(*)CCN1
# System: Escherichia coli (E. coli) strain CFT073 ATCC 700928
# Type: cell-based
# Details: ATCC 700928, 22 h
# Outline: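 MICs were read after 22 h at 35 °C, with bacteria added to a final OD600 of 0.0005. Compounds were serially diluted 2-fold over ten concentrations from a top of 64, 4, 0.5 or 0.13 μg/mL (protocols 1–4). Medium was cation-adjusted Mueller Hinton II broth plus 0.002% Tween-80, following CLSI M07-A8.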
row,SMILES,MIC
1,"CCCCCCCCCC[C@H]1OC(=O)CNC(=O)[C@H]([C@H](C)O)NC(=O)[C@H](CN)NC(=O)[C@H]([C@@H](C)CC)NC(=O)[C@H](CC(C)C)N(C)C(=O)[C@@H]1C [Example 23, (6S,9S,12S,15S,18R,19R)-9-(aminomethyl)-19-decyl-6-[(1S)-1-hydroxyethyl]-15-isobutyl-16,18-dimethyl-12-[(1S)-1-methylpropyl]-1-oxa-4,7,10,13,16-pentazacyclononadecane-2,5,8,11,14,17-hexone]",3.1 µM
2,"CC[C@@H](C)[C@@H]1NC(=O)[C@H](CC(C)C)N(C)C(=O)[C@H](C)[C@@H](CCCCC(C)(C)C)OC(=O)CNC(=O)[C@H]([C@H](C)O)NC(=O)[C@H](CN)NC1=O [Example 49, (6S,9S,12S,15S,18R,19R)-9-(aminomethyl)-19-(5,5-dimethylhexyl)-6-[(1S)-1-hydroxyethyl]-15-isobutyl-16,18-dimethyl-12-[(1R)-1-methylpropyl]-1-oxa-4,7,10,13,16-pentazacyclononadecane-2,5,8,11,14,17-hexone]",3.1 µM
3,"CCCCCC[C@H]1OC(=O)CNC(=O)[C@H]([C@H](C)O)NC(=O)[C@H](CN)NC(=O)[C@H](C2CC3(CCC3)C2)NC(=O)[C@H](CC(C)C)N(C)C(=O)[C@@H]1C [Example 55, (6S,9S,12S,15S,18R,19R)-9-(aminomethyl)-19-hexyl-6-((S)-1-hydroxyethyl)-15-isobutyl-16,18-dimethyl-12-(spiro[3.3]heptan-2-yl)-1-oxa-4,7,10,13,16-pentaazacyclononadecane-2,5,8,11,14,17-hexaone]",18 µM
4,"CCCCCC[C@H]1OC[C@@H](C)NC(=O)[C@H](CO[C@H]2C[C@H](CN)C2)NC(=O)[C@H](CN)NC(=O)[C@H](C2CCCCC2)NC(=O)[C@H](CC(C)C)N(C)C(=O)[C@@H]1C [Example 149, (3R,6S,9S,12S,15S,18R,19R)-9-(Aminomethyl)-6-(((1r,3,S)-3-(aminomethyl)cyclobutoxy)methyl)-12-cyclohexyl-19-hexyl-15-isobutyl-3,16,18-trimethyl-1-oxa-4,7,10,13,16-pentaazacyclononadecane-5,8,11,14,17-pentaone] (cyclo([Chg][Dap]S(X8)[X2][NMeL]))",8.8 µM
5,"CCCCCCCCCC[C@H]1OC(=O)CNC(=O)[C@H](CCO)NC(=O)[C@H](CN)NC(=O)[C@H]([C@H](C)CC)NC(=O)[C@H](CC(C)C)N(C)C(=O)[C@@H]1C [Example 10, (6S,9S,12S,15S,18R,19R)-9-(aminomethyl)-19-decyl-6-(2-hydroxyethyl)-15-isobutyl-16,18-dimethyl-12-[(1R)-1-methylpropyl]-1-oxa-4,7,10,13,16-pentazacyclononadecane-2,5,8,11,14,17-hexone]",6.3 µM
6,"CCCCCC[C@H]1OC(=O)CNC(=O)[C@H]([C@H](C)O)NC(=O)[C@H](CO)NC(=O)[C@H]([C@H](C)CC)NC(=O)[C@H](CC(C)C)N(C)C(=O)[C@@H]1CCCc1ccc(C)cc1 [Example 9, (6S,9S,12S,15S,18R,19R)-12-((R)-sec-butyl)-19-hexyl-6-((S)-1-hydroxyethyl)-9-(hydroxymethyl)-15-isobutyl-16-methyl-18-(3-(p-tolyl)propyl)-1-oxa-4,7,10,13,16-pentaazacyclononadecane-2,5,8,11,14,17-hexaone]",6.3 µM
7,"CC(C)C[C@H]1C(=O)N[C@@H](C2CCCCC2)C(=O)N[C@@H](CN)C(=O)N[C@@H]([C@H](C)O)C(=O)N[C@H](C)CO[C@H](CC23CC4CC(CC(C4)C2)C3)[C@@H](C)C(=O)N1C [Example 74, (3R,6S,9S,12S,15S,18R,19R)-19-(((1r,3R,5S)-Adamantan-1-yl)methyl)-9-(aminomethyl)-12-cyclohexyl-6-((S)-1-hydroxyethyl)-15-isobutyl-3,16,18-trimethyl-1-oxa-4,7,10,13,16-pentaazacyclononadecane-5,8,11,14,17-pentaone] (cyclo([Chg][Dap][aThr][X12][NMeL]))",1.6 µM
8,"CCCCCC[C@H]1OC[C@@H](C)NC(=O)[C@H]([C@H](C)O)NC(=O)[C@H](CN)NC(=O)[C@H](C2CCCCC2)NC(=O)[C@H](CC(C)C)N(C)C(=O)[C@@H]1C [Example 57, (3R,6S,9S,12S,15S,18R,19R)-9-(Aminomethyl)-12-cyclohexyl-19-hexyl-6-((S)-1-hydroxyethyl)-15-isobutyl-3,16,18-trimethyl-1-oxa-4,7,10,13,16-pentaazacyclononadecane-5,8,11,14,17-pentaone] (cyclo([Chg][Dap][aThr][X2][NMeL]))",2.9 µM

# Results, then the molecule that gave them:
row,MIC,SMILES
1,50 µM,"CCCCCC[C@H]1OCCNC(=O)[C@H](CO)NC(=O)[C@H](CN)NC(=O)[C@H]([C@H](C)CC)NC(=O)[C@H](CC(C)C)N(C)C(=O)[C@@H]1C [Example 113, (6S,9S,12S,15S,18R,19R)-9-(aminomethyl)-19-hexyl-6-(hydroxymethyl)-15-isobutyl-16,18-dimethyl-12-[(1R)-1-methylpropyl]-1-oxa-4,7,10,13,16-pentazacyclononadecane-5,8,11,14,17-pentone] (cyclo([Dap]S[X14][NMeL][aIle]))"
2,4.4 µM,"CCCCCC[C@H]1OC[C@@H](C)NC(=O)[C@H]([C@H](C)O)NC(=O)[C@H](CN)NC(=O)[C@H](C2CCCCC2)NC(=O)[C@H](CCC)N(C)C(=O)[C@@H]1C [Example 127, (3R,6S,9S,12S,15S,18R,19R)-9-(aminomethyl)-12-cyclohexyl-19-hexyl-3,16,18-trimethyl-15-propyl-6-[(1S)-1-hydroxyethyl]-1-oxa-4,7,10,13,16-pentazacyclononadecane-5,8,11,14,17-pentone] (cyclo([Chg][Dap][aThr][X2][NMeNva]))"
3,18 µM,"CCCCCC[C@H]1OC(=O)CNC(=O)[C@H](CNC(C)=O)NC(=O)[C@H](CN)NC(=O)[C@H](C2CCCCC2)NC(=O)[C@H](CC(C)C)N(C)C(=O)[C@@H]1C [Example 124, N-[[(6S,9S,12S,15S,18R,19R)-9-(aminomethyl)-12-cyclohexyl-19-hexyl-15-isobutyl-16,18-dimethyl-2,5,8,11,14,17-hexaoxo-1-oxa-4,7,10,13,16-pentazacyclononadec-6-yl]methyl]acetamide]"
4,4.4 µM,"CCC[C@H]1C(=O)N[C@@H](C2CCCCCC2)C(=O)N[C@@H](CN)C(=O)N[C@@H](COC2CCNCC2)C(=O)N[C@H](C)CO[C@H](CC2CC3(CCC3)C2)[C@@H](C)C(=O)N1C [Example 163, (3R,6S,9S,12S,15S,18R,19R)-9-(Aminomethyl)-12-cycloheptyl-3,16,18-trimethyl-6-((piperidin-4-yloxy)methyl)-15-propyl-19-(spiro[3.3]heptan-2-ylmethyl)-1-oxa-4,7,10,13,16-pentaazacyclononadecane-5,8,11,14,17-pentaone] (cyclo([Dap]S(X22)[X13][NMeNva][Gly(cHept)]))"
5,12 µM,"CCCCCC[C@H]1OC[C@@H](C)NC(=O)[C@H](COCCN)NC(=O)[C@H](CN)NC(=O)[C@H](C2CCCCC2)NC(=O)[C@H](CC(C)C)N(C)C(=O)[C@@H]1C [Example 138, (3R,6S,9S,12S,15S,18R,19R)-6-(2-aminoethoxymethyl)-9-(aminomethyl)-12-cyclohexyl-19-hexyl-15-isobutx1-3,16,18-trimethyl-1-oxa-4,7,10,13,16-pentazacyclononadecane-5,8,11,14,17-pentone] (cyclo([Chg][Dap]S(Ethyl(2-NH2))[X2][NMeL]))"
6,4.4 µM,"CCCCCC[C@H]1OC(=O)CNC(=O)[C@H]([C@H](C)O)NC(=O)[C@H](CO)NC(=O)[C@H](C2CCCCC2)NC(=O)[C@H](CC(C)C)N(C)C(=O)[C@@H]1C [Example 118, (6S,9S,12S,15S,18R,19R)-12-cyclohexyl-19-hexyl-9-(hydroxymethyl)-15-isobutyl-16,18-dimethyl-6-[(1S)-1-hydroxyethyl]-1-oxa-4,7,10,13,16-pentazacyclononadecane-2,5,8,11,14,17-hexone]"
7,8.8 µM,"CCCCCC[C@H]1OC(=O)CNC(=O)[C@H]([C@H](C)O)NC(=O)[C@H](CN)NC(=O)[C@H](C2CCCCC2)NC(=O)[C@H](CC)N(C)C(=O)[C@@H]1C [Example 111, (6S,9S,12S,15S,18R,19R)-9-(aminomethyl)-12-cyclohexyl-15-ethyl-19-hexyl-16,18-dimethyl-6-[(1S)-1-hydroxyethyl]-1-oxa-4,7,10,13,16-pentazacyclononadecane-2,5,8,11,14,17-hexone]"
8,4.1 µM,"CCCCCC[C@H]1OC(=O)CNC(=O)[C@H]([C@H](C)O)NC(=O)[C@H](CN)NC(=O)[C@H](C2CCCCC2)NC(=O)[C@H](CCC)N(C)C(=O)[C@@H]1C [Example 101, (6S,9S,12S,15S,18R,19R)-9-(aminomethyl)-12-cyclohexyl-19-hexyl-16,18-dimethyl-15-propyl-6-[(1S)-1-hydroxyethyl]-1-oxa-4,7,10,13,16-pentazacyclononadecane-2,5,8,11,14,17-hexone]"
9,4.4 µM,"CCCCCCC1OC(=O)CNC(=O)[C@H](CNC(=O)C2CC3(CNC3)C2)NC(=O)[C@H](CN)NC(=O)[C@H](C2CCCCC2)NC(=O)[C@H](CC(C)C)N(C)C(=O)[C@@H]1C (stereo in doubt) [Example 165, N-[[(6S,9S,12S,15S,18R,19R)-9-(Aminomethyl)-12-cyclohexyl-19-hexyl-15-isobutyl-16,18-dimethyl-2,5,8,11,14,17-hexaoxo-1-oxa-4,7,10,13,16-pentazacyclononadec-6-yl]methyl]-2-azaspiro[3.3]heptane-6-carboxamide]"

# Same assay, conditions: E. coli CFT073 ATCC 700928; Mueller Hinton II cation adjusted Broth with 0.002% v/v Tween-80; 35° C. for 22 hours; lowest concentration that completely prevented bacterial growth
row,SMILES,MIC
1,"CCCCCCCCCC[C@H]1OC(=O)CNC(=O)[C@H](CO)NC(=O)[C@H](CO)NC(=O)[C@H]([C@H](C)CC)NC(=O)[C@H](CC(C)C)N(C)C(=O)[C@@H]1C [Example 5, (6S,9S,12S,15S,18R,19R)-12-((R)-sec-butyl)-19-decyl-6,9-bis(hydroxymethyl)-15-isobutyl-16,18-dimethyl-1-oxa-4,7,10,13,16-pentaazacyclononadecane-2,5,8,11,14,17-hexaone]",4.7 µM and 3.1 µM
